# Measurements taken from US20040077080A1, “Compositions and methods for induction of proteins involved in xenobiotic metabolism” (priority 2000, published 2004).
# Entries after “also recorded” stand apart in the source; their conditions may differ.
# B1: CYP2C19 F4 fragment (dsDNA)
# DNA 1: AACCAAACTCTTCTGACCCCCAATCT
# DNA 2: AGATTGGGGGTCAGAAGAGTTTGGTT
# Assays:
# [1] = tested on: PXR / mdr1(dr4) response element; assay: Hep-PXR/Pgp-Luc stable cell luciferase assay
# Procedure: (§1) FIG. 35 depicts dose-response behavior to various PXR activators in stable cell lines overexpressing PXR and harboring DR4 response element. FIG. 35A: Results are shown for the stable cell line Hep-PXR/PgpLuc. FIG. 35B: Results are shown for the stable cell line Caco-PXR/PgpLuc.
# (§2) Cells were exposed to the test compounds for 48 hours at the concentrations indicated.
# FIG. 36 depicts the effect of environmental and botanical chemicals on luciferase activity in the stable cell line Hep-PXR/PgpLuc. Cells were inoculated into 96-well plates at a density of 2×10^4 cells per well. After overnight recovery, cells were treated with the test compounds at the concentrations indicated for 48 hours.
# (§3) Establishment of stable transformants containing both PXR and reporter plasmid and development of high throughput bioassay for PXR-dependent transactivation: The stable transformants Hep-PXR/mdr1(dr4)-Luc and Caco-PXR/mdr1(dr4)-Luc cell lines were generated from the parental cell lines HepG-PXR and Caco-PXR, respectively, according to the following procedure. The parental cell lines HepG-PXR and Caco-PXR, which overexpress PXR, were stably transfected with the luciferase reporter plasmid mdr1(dr4)-Luc. The transfected cells were cultured in DMEM (HepG-PXR cells) or in IMEM (Caco-PXR cells), both media supplemented with 10% fetal bovine serum and neomycin (700 micrograms per milliliter).
# (§4) For the induction assay, stable transformants were seeded in 96-wells plates at a density of 1×10^4 cells per well and allowed to recover overnight. Plates were treated with test compounds at varying concentrations, using 3 replicates per dose. After 48 hours of exposure to the test compound, cells were washed with phosphate buffered saline, lysis buffer was applied to the wells, and luciferase substrate added. Following 10 minutes for light adaptation, luminescence was monitored according to the manufacturer's instructions (Packard kit, Biomed).
# [2] = tested on: PXR / CYP3A4 response elements; assay: DPX2 (Hepg-hPXR/3A4-Luc) luciferase assay; details: DPX2 cells, kava-kava 100 micrograms per milliliter, chrysin 25 micromoles per liter
# Procedure: Compounds tested included known PXR ligands and conventional drugs (FIG. 30A), environmental contaminants (FIG. 30B), and herbal supplements (FIG. 30C). DPX2 cells were cultured with DMEM supplemented with 10% fetal bovine serum and neomycin. Cells were inoculated into 96-well plate at a density of 1×10^4 cells per well the day before treatment.
# 2. […] In addition, a distal enhancer module, XREM, was amplified by PCR using the sense primer
# The resulting amplified XREM fragment was ligated upstream of PXRE containing a 3A4 promoter, into a luciferase vector.
# A neomycin resistance gene was generated by PCR amplification using the pcDNA3.1 plasmid (Invitrogen, Carlsbad, Calif.), which encodes a neomycin resistant gene, as a DNA template. The sense primer had the sequence […] Amplification was followed by SalI digestion of the PCR product, and the resulting fragment ligated to the SalI-digested PGL3-promoter plasmid, which contains luciferase as a reporter gene. […] The CYP3A4 cell line DPX2 (Hepg-hPXR/3A4-Luc) was established by double transfection with the PXR expression plasmid and the luciferase plasmid containing CYP3A4 PXR response element under selection with both neomycin and hygromycin.
# CYP1A1 mRNA [3] = assay: Northern blot of CYP1A1 in primary human hepatocytes (Example V); details: primary hepatocytes, 24 hours; TCDD 10 nanomoles per liter, 3-MC 0.5 nanomoles per liter, omeprazole 100, chrysin 25, curcumin 50, resveratrol 25, DMBA 20, 2-AAF 100 micromoles per liter
# From the text: The isolated RNA was subjected to Northern blot analysis.
# [4] = tested on: AhR (dioxin response elements); assay: DRE12-6 luciferase assay (HepG2 with dioxin response elements); details: DRE12-6 cells, 28 hours
# Procedure: (§6) FIG. 25A: DRE12-6 cells were treated for 28 hours with the indicated concentrations of phytochemicals. FIG. 25B: DRE12-6 cells were treated with the indicated chemicals for 3 hours prior to co-treatment with 2,3,7,8-tetrachlorodibenzo-p-dioxin (TCDD) for 28 hours.
# (§7) Chemical treatment was followed by cell lysis and luciferase measurement.
# (§8) FIG. 26A: DRE12-6 cells were inoculated into a 96-well plate (2×10^4 cells per well) a day prior to treatment and treated for 28 hours with the indicated concentrations of the environmental contaminants (PAHs, PAH derivatives, PCBs, or pesticide derivatives). FIG. 26B: DRE12-6 cells were treated with the indicated chemicals for 3 hours prior to co-treatment with 2,3,7,8-tetrachlorodibenzo-p-dioxin (TCDD) for 28 hours.
# (§9) The luciferase-SV40 promoter vector, with the three copies of the dioxin response elements, was transfected into HepG2 cells, which were put under neomycin selection to yield the stable cell line DRE12-6, for detection of AhR-dependent transactivation.
# (§10) Luciferase assay: Luciferase assays using the LucLite system (Packard Instrument Co., Meriden, Conn.) were performed according to the manufacturer's instructions. Results were expressed as relative light units or fold induction, relative to DMSO-treated control cells. The data represent the mean±standard deviation of experiments performed in duplicate.
# CYP2C19 (hCAR) = assay: CYP2C19 induction in HepG2 cell lines stably transfected with hCAR
# hPXR / CYP3A4 enhancer = details: colony 1F; 72 hours; omeprazole 100 micromolar, PCN 50 micromolar, TCDD 1 micromolar
# From the text: (§11) HepG2 cells were harvested at approximately 50% confluency and seeded in six well dishes at 5×10^5 cells per well in DMEM containing 10% fetal bovine serum (FBS). […] The control cells were those that received plasmid DNA containing pGL3 promoter and pIRES(neo) or pGL3promoter and hPXR in pIRES(neo). After sixteen hours of exposure to the precipitated DNA, the culture medium was removed, cells washed twice with DMEM, and fresh media containing 10% FBS added. After an additional twenty four hours, media was replaced with that containing 400 micrograms per milliliter of G418. Media was changed every two days for three weeks until small colonies were visible. Single colonies were selected and transferred to twenty four well Costar plates (VWR, Westchester, Pa.). Each of the twenty four wells contained the same media and cells were grown to confluency with media changes every three days. Confluent wells were trypsinized and cells transferred into six well plates and upon reaching confluency therein, cells were further transferred to T75 flasks.
# (§12) Luciferase assays were performed as specified by the manufacture (LucLite system, Packard Instrument, Meriden, Conn.). Activity was determined using the Packard LumniCount luminometer and results expressed as relative light units or fold increase above control (DMSO treated cells).
# (§13) Cells were seeded in T75 flasks and grown to confluency. […]
# CYP1A1 mRNA [5] = assay: Northern blot of CYP1A1 mRNA in HepG2 cells; details: HepG2 cells; mean of two determinations
# Procedure: HepG2 cells were obtained from American Type Culture Collection (ATCC). Cells were grown in DMEM (Gibco/BRL). Twenty-four hours after cells were plated and grown to confluency, they were treated with one of the bioflavonoids, TCDD, or beta-naphthoflavone (Sigma). All inducers were dissolved in DMSO and this solvent was added to control cells at 0.1%.
# (§5) Total RNA from hepatocytes or HepG2 cells was isolated using Trizol™ reagent (Gibco BRL Products, Gaithersburg, Md.) and quantified by measuring absorbance at 260 nm; purity was assessed by determining the 260/280 nm ratio. […] A cDNA probe for human 18S RNA probe (Ambion, Austin Tex.) was used to normalize the amount of RNA loaded in each lane. […] Autoradiographs of Northern blots were quantified by densitometry using a Model GS-670 Imaging Densitometer equipped with Molecular Analysis/Mac version 1.1.1. Image Analysis software (BioRad laboratories, Hercules, Calif.) or by scaning autoradiograms with a ScanMaker II (Microtek) and digitized with Un-Scan-It software (Silk Scientific, Orem Utah). Exposure times used were in the linear range of the film, Kodak XAR-5.
# CYP1A1 mRNA [6] = assay: Northern blot of CYP1A1 mRNA in primary cultures of human hepatocytes (Example II); details: primary human hepatocytes
# Procedure: Six well plates containing human hepatocytes were obtained from the Liver Tissue Procurement and Distribution System (LTPADS, University of Minnesota, Minneapolis, Minn.). […] All inducers were dissolved in DMSO and added to media at a 0.1% final concentration of this reagent. After treatment, media was removed and cells harvested for RNA isolation.
# as §5
# [7] = tested on: human CYP1A1 promoter (Ah receptor); assay: 101L cell luciferase assay (HepG2 with human CYP1A1 promoter-luciferase), 96-well; details: 101L cells; for fold increase in luciferase activity, dose response of known CYP1A1 inducers: benzanthracene and omeprazole maximum at 100 micromolar, TCDD at 2 nanomolar
# Procedure: Cells were initially seeded in flasks containing media without G418. After an overnight incubation the cultures were changed into media containing G418 for antibiotic selection. After three to five days, cells were removed from flasks by trypsinization and replated on either a twenty-four-well plate at a density of 3.5×10^5 cells per well, or a ninety-six-well plate at a density of 7.5×10^4 cells per well, in DMEM media that was replaced with that containing 0.1% FBS and without G418 or indicator (phenol red). The next day, media containing 0.1% FBS and G418 was added to the cultures. […] For the antagonist experiments, cells were co-treated with a flavonoid and two nanomolar TCDD. All inducers were dissolved in DMSO and this reagent was added to control cells at 0.1%. The cells were treated with varous doses and times (six to eighteen hours). After treatment, the media containing the compound was removed by aspiration and replaced with one-hundred microliters per well of DMEM for direct analysis of luciferase activity. Experiments were performed on 101L cells from frozen stocks on the initial derivation and the passage number was limited to thirty.
# Luciferase assays were performed as specified by the manufacturer (LucLite system, Packard Instrument, Meriden, Conn.). Activity was determined using a Packard LumiCount luminometer and results expressed as relative light units or fold increase above control (DMSO treated cells.
# CYP3A4 enhancer (PXRE) = assay: Luciferase reporter assay, HepG2 cells stably transformed with CYP3A4 enhancer (colony 13); details: 72 hours, omeprazole 100, clotrimazole 10, RU486 10, PCN 50, TCDD 1 micromolar
# From the text: as §11, §12, §13
# [8] = tested on: AhR (dioxin response elements); assay: in vitro; details: human, fold induction of luciferase activity above DMSO, DRE12-6 cells, 28 hours; TCDD 10 nanomoles per liter, omeprazole 25, 2-AAF 100, DMBA 20 micromoles per liter
# Procedure: as §6, §7, §8, §9, §10
# CYP3A4 mRNA (PXR) = assay: Northern blot of CYP3A4 in stable cells overexpressing PXR (Hepg-PXR); details: stable cells that overexpress PXR
# Procedure: FIG. 29 depicts CYP3A4 gene regulation in response to PXR ligands by the stably transfected cell line Hepg-PXR (HepG2 cells overexpressing PXR). Total RNA was prepared from Hepg-PXR cells chemically treated as indicated. The RNA blot was hybridized with ^32P-labeled cDNA for CYP3A4 (upper panel).
# Northern blot analysis. Total RNA from primary human hepatocytes and from a PXR stable cell line was isolated using Trizol reagent (Invitrogen, Carlsbad, Calif.) and quantified by spectrophotometric analysis at 260 nanometers. […] The blot was subsequently washed and re-hybridized to an 18S rRNA probe to verify that equal amounts of total RNA had been applied to each lane.
# [9] = tested on: PXR / mdr1(dr4) response element; assay: Caco-PXR/Pgp-Luc stable cell luciferase assay
# Procedure: as §1, §2, §3, §4
# CYP3A4 mRNA [10] = details: human, hepatocytes
# Procedure: FIG. 13 depicts the effect of various CYP3A4 inducers on CYP3A4 expression in human hepatocytes. […] Total RNA (ten micrograms) was subjected to northern blot analysis and developed with a specific cDNA probe to CYP3A4 as described in the Examples.
# Human hepatocytes were treated with various CYP3A4 inducers for forty eight hours, harvested, and RNA and cell homogenates isolated.
# CYP3A4 mRNA [11] = details: human, hepatocytes; remark: listed apart in the source
# Procedure: FIG. 28B: Human primary hepatocytes were exposed for 48 hours to commercial health supplements including grapeseed, garlic, kava-kava, and ginseng.
# Total RNA was prepared from the treated cells, subjected to electrophoresis on a 1% formaldehyde gel, and transferred onto a nylon membrane.
# [12] = tested on: T1, CAR (hCAR) (Homo sapiens), Q14994-2; assay: cell_activity; details: Caco-2 luciferase, fold above no receptor
# T1 sequence: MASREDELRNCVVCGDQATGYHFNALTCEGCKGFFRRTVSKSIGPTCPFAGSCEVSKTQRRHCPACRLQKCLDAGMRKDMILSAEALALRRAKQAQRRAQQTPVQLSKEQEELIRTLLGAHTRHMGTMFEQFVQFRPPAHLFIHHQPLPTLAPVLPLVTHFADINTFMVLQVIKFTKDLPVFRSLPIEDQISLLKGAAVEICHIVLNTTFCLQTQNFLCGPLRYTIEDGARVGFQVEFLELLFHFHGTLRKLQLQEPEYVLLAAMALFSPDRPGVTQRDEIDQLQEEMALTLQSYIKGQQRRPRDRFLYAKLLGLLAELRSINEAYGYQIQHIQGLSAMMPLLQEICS
# [13] = target: CAR/RXR heterodimer (hCAR/hRXRa) (Homo sapiens, UniProt Q14994-2;P19793 Q14994-2:1-348,P19793:1-462); assay: EMSA; details: tags: TNT coupled transcription/translation (Promega); label: 32P
# [14] = TCDD 10 nanomoles per liter, omeprazole 25, 2-AAF 100, DMBA 20 micromoles per liter
# Chain of CAR/RXR heterodimer (hCAR/hRXRa) (P19793 whole entry, one chain of several): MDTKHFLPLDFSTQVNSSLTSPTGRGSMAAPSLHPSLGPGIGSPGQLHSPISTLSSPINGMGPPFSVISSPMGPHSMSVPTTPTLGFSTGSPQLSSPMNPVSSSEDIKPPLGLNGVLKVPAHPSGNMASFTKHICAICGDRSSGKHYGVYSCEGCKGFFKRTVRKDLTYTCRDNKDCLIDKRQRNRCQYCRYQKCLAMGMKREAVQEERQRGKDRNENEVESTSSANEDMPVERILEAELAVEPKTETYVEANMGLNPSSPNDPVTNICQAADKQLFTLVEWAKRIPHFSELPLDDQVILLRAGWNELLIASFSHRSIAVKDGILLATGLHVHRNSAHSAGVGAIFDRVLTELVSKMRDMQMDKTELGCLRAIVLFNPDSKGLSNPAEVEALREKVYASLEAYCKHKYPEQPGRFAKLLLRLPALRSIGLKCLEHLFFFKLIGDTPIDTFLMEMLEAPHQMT
molecule,measurement,setting,value
"CC(=O)Nc1ccc2c(c1)Cc1ccccc1-2 [2-AAF, 2-acetylaminofluorene]",strength of luciferase induction (in words),"[1]; Hep-PXR/PgpLuc cells, 48 hours, omeprazole 100 micromoles per liter versus rifampicin 10 micromoles per liter",strongly induced
same,fold induction of luciferase activity above DMSO,[2]; 48 hours,24.7 fold
same,fold induction at 48 h,"[2]; human, fold induction of luciferase activity above DMSO",24.8
same,CYP1A1 induction by Northern blot (in words),CYP1A1 mRNA [3],increased CYP1A1 expression slightly
same,fold induction of luciferase activity above DMSO,[4]; [14],10.21±0.36 fold
same,fold induction of luciferase activity above DMSO,"[4]; TCDD 10 nanomoles per liter, omeprazole 25, 2-AAF 100, DMBA 20 micromoles per liter, listed as 2-acetylaminofluorene",4.8 fold
"Clc1ccc(-c2nc3sccn3c2C=NOCc2ccc(Cl)c(Cl)c2)cc1 [CITCO, 6-(4-chlorophenyl)imidazo[2,1-b][1,3]thiazole-5-carbaldehyde-O-(3,4-dichlorbenzyl)oxime]",induction of HepG2 CYP2C19 (in words),CYP2C19 (hCAR),induce HepG2 CYP2C19
Clc1cc2c(cc1Cl)Oc1cc(Cl)c(Cl)cc1O2 [TCDD],"fold increase in luciferase activity above DMSO, single concentrations (FIG. 14)",hPXR / CYP3A4 enhancer,less than two
same,"HepG2 CYP1A1 mRNA (%), normalized to TCDD induction",CYP1A1 mRNA [5],100%
same,CYP1A1 induction by Northern blot (in words),CYP1A1 mRNA [3],maximum induction
same,"CYP1A1 mRNA level Subject A (%), normalized to TCDD induction",CYP1A1 mRNA [6]; 24 hours,100%
same,"CYP1A1 mRNA level Subject B (%), normalized to TCDD induction",CYP1A1 mRNA [6]; 24 hours,100%
same,"CYP1A1 mRNA level Subject D (%), normalized to TCDD induction",CYP1A1 mRNA [6]; 24 hours,100%
same,"fold increase in luciferase activity, dose response of known CYP1A1 inducers",[7],twelve to thirty-five; also recorded: twenty-two
same,AhR-mediated luciferase induction (in words),[4],dose-dependent increase
same,fold induction of luciferase activity above DMSO,[4]; [14],12.99±0.64 fold
same,fold induction at 28 h,"[4]; human, fold induction of luciferase activity above DMSO, TCDD 10 nanomoles per liter, omeprazole 25, 2-AAF 100, DMBA 20 micromoles per liter",20
same,"fold increase in luciferase activity above DMSO, single concentrations (FIG. 15)",CYP3A4 enhancer (PXRE),less than one
c1ccc2cc3c(ccc4ccccc43)cc2c1 [benzanthracene],"CYP1A1 mRNA level Subject A (%), normalized to TCDD induction",CYP1A1 mRNA [6]; 24 hours,50%
same,"CYP1A1 mRNA level Subject B (%), normalized to TCDD induction",CYP1A1 mRNA [6]; 24 hours,50%
same,"CYP1A1 mRNA level Subject C (%), normalized to benzanthracene induction","CYP1A1 mRNA [6]; Subject C, 24 hours",100%
same,"CYP1A1 mRNA level Subject D (%), normalized to TCDD induction",CYP1A1 mRNA [6]; 24 hours,52%
same,"CYP1A1 mRNA, % of that observed with TCDD, all subjects",CYP1A1 mRNA [6]; 100 micromolar benzanthracene,50%
same,maximum CYP1A1 mediated luciferase activity,"[7]; 96-well plate format, 50 micromolar benzanthracene",33 fold
same,"fold increase in luciferase activity, dose response of known CYP1A1 inducers",[7],twelve to thirty-five
same,fold induction,[8],28.7 ± 1.65
CC[C@H](C)C(=O)O[C@H]1CCC=C2C=C[C@H](C)[C@H](CC[C@@H]3C[C@@H](O)CC(=O)O3)[C@H]21 [mevastatin],dose dependence of luciferase induction (in words),[1],dose-dependent luciferase induction
same,CYP3A4 induction by Northern blot (in words),CYP3A4 mRNA (PXR),efficiently activated
same,dose dependence of luciferase induction (in words),[9],dose-dependent luciferase induction
same,strength of luciferase induction (in words),[9],strongly induce
CCC1(c2ccccc2)C(=O)NC(=O)NC1=O [phenobarbital],fold increase in CYP3A4 mRNA,CYP3A4 mRNA [10],3.8 fold
same,CYP3A4 mRNA by Northern blot (in words),CYP3A4 mRNA [11],increased CYP3A4 gene expression
same,induction of HepG2 CYP2C19 (in words),CYP2C19 (hCAR),induce HepG2 CYP2C19
CYP2B6 PBREM reporter,activity,[12],6.16 fold
B1,binding result,[13],binds
